Values quoted from earlier work as cited in patent US7090851B1, “Long lasting fusion peptide inhibitors of viral infection” (priority 1999, dated 2006).
“Also recorded” adds a separate entry of the source.

Tested on: measles virus (MeV)
Conditions: MeV-infected and uninfected Vero cells
For “HRIDLGPPISLERLDVGTNLGNAIAKLEAKELLE [SEQ ID NO:77]”, the “inhibition of MeV viral infection, fusion and syncytia formation” value (“inhibition of MeV viral infection” below) is given as “inhibits viral infection”. In the case of “IDLGPPISLERLDVGTNLGNAIAKLEAKELLESS [SEQ ID NO:79]”, the “inhibition of MeV viral infection” value is listed as “inhibits viral infection”. In the case of “PISLERLDVGTNLGNAIAKLEAKELLESSDQILR [SEQ ID NO:84]”, the “inhibition of MeV viral infection” value is given as “inhibits viral infection”.

Tested on: human parainfluenza virus 3 (HPIV3)
Conditions: HPIV3-infected Hep2 cells and uninfected CV-1W cells
In the case of “DPIDISIELNKAKSDLEESKEWIRRSNQKLDSIGN (LDPIDISIELNKAKSDLEESKEWIRRSNQKLDSIG) [SEQ ID NO:40, anti-HPIV peptide]”, the “inhibition of HPIV3 viral infection, fusion and syncytia formation” value (shortened to “inhibition of HPIV3 viral infection”) is given as “inhibits viral infection”. For “ALDPIDISIELNKAKSDLEESKEWIRRSNQKLDSI (VALDPIDISIELNKAKSDLEESKEWIRRSNQKLDS) [SEQ ID NO:38, anti-HPIV peptide]”, the “inhibition of HPIV3 viral infection” value is listed as “inhibits viral infection”. In the case of “RSDIEKLKEAIRDTNKAVQSVQSSIGNLIVAIKSV [SEQ ID NO:58]”, the “inhibition of HPIV3 viral infection” value is given as “inhibits viral infection”. In the case of “VEAKQARSDIEKLKEAIRDTNKAVQSVQSSIGNLI [SEQ ID NO:52]”, the “inhibition of HPIV3 viral infection” value is listed as “inhibits viral infection”. For “IDISIELNKAKSDLEESKEWIRRSNQKLDSIGNWH (PIDISIELNKAKSDLEESKEWIRRSNQKLDSIGNW) [SEQ ID NO:42, anti-HPIV peptide]”, the “inhibition of HPIV3 viral infection” value is listed as “inhibits viral infection”. In the case of “PIDISIELNKAKSDLEESKEWIRRSNQKLDSIGNW (DPIDISIELNKAKSDLEESKEWIRRSNQKLDSIGN) [SEQ ID NO:41, anti-HPIV peptide]”, the “inhibition of HPIV3 viral infection” value is listed as “inhibits viral infection”. For “LDPIDISIELNKAKSDLEESKEWIRRSNQKLDSIG (ALDPIDISIELNKAKSDLEESKEWIRRSNQKLDSI) [SEQ ID NO:39, anti-HPIV peptide]”, the “inhibition of HPIV3 viral infection” value is given as “inhibits viral infection”. In the case of “NSVALDPIDISIELNKAKSDLEESKEWIRRSNQKL (NNSVALDPIDISIELNKAKSDLEESKEWIRRSNQK) [SEQ ID NO:35, anti-HPIV peptide]”, the “inhibition of HPIV3 viral infection” value is listed as “inhibits viral infection”.

Tested on: HIV-1
Conditions: infection and cell-cell fusion
In the case of enfuvirtide, the “anti-HIV-1 activity (words)” value is given as “potent inhibitor of HIV-1; also recorded: potent anti-HIV-1 activity”.

Same assay, conditions: infection and cell-cell fusion; listed as DP-107
For “NNLLRAIEAQQHLLQLTVWQIKQLQARILAVERYLKDQ [DP107]”, the “anti-HIV-1 activity (words)” value is listed as “potent inhibitors of HIV-1 infection and fusion”.

Same assay, conditions: infection and cell-cell fusion; listed as DP-178
For enfuvirtide, the “anti-HIV-1 activity (words)” value is given as “potent inhibitors of HIV-1 infection and fusion”.

Tested on: respiratory syncytial virus (RSV)
Conditions: Hep-2 cells
For “IALLSTNKAVVSLSNGVSVLTSKVLDLKNYIDK [SEQ ID NO:29, anti-RSV peptide]”, the “concentration inhibiting fusion and syncytia formation between RSV-infected and uninfected Hep-2 cells” value is listed as “less than 50 μg/ml”.

Same assay, conditions: RSV-infected and uninfected Hep-2 cells
In the case of “VITIELSNIKENKCNGAKVKLIKQELDKYKNAV (VITIELSNIKENKCNGDAKVKLIKQELDKYKNAV) [SEQ ID NO:16, anti-RSV peptide]”, the “inhibition of RSV viral infection, fusion and syncytia formation” value (shortened to “inhibition of RSV viral infection”) is given as “inhibits viral infection”. For “TSVITIELSNIKENKCNGAKVKLIKQELDKYKN (TSVITIELSNIKENKCNGDAKVKLIKQELDKYKN) [SEQ ID NO:15, anti-RSV peptide]”, the “inhibition of RSV viral infection” value is listed as “inhibits viral infection”. For “YTSVITIELSNIKENKCNGAKVKLIKQELDKYK (YTSVITIELSNIKENKCNGDAKVKLIKQELDKYK) [SEQ ID NO:14, anti-RSV peptide]”, the “inhibition of RSV viral infection” value is given as “inhibits viral infection”. In the case of “IALLSTNKAVVSLSNGVSVLTSKVLDLKNYIDK [SEQ ID NO:29, anti-RSV peptide]”, the “inhibition of RSV viral infection” value is listed as “inhibits viral infection”.

Tested on: simian immunodeficiency virus (SIV)
Conditions: as crude peptide
For “ERKVDFLEENITALLEEAQIQQEKNMYELQKLNSW [SEQ ID NO:68]”, the “anti-SIV activity” value is given as “potent antiviral activity”. In the case of “WERKVDFLEENITALLEEAQIQQEKNMYELQKLNS [SEQ ID NO:67]”, the “anti-SIV activity” value is given as “potent antiviral activity”. For “KVDFLEENITALLEEAQIQQEKNMYELQKLNSWDV [SEQ ID NO:70]”, the “anti-SIV activity” value is given as “potent antiviral activity”. For “EWERKVDFLEENITALLEEAQIQQEKNMYELQKLN [SEQ ID NO:66]”, the “anti-SIV activity” value is listed as “potent antiviral activity”. For “RKVDFLEENITALLEEAQIQQEKNMYELQKLNSWD [SEQ ID NO:69]”, the “anti-SIV activity” value is listed as “potent antiviral activity”. In the case of “VDFLEENITALLEEAQIQQEKNMYELQKLNSWDVF [SEQ ID NO:71]”, the “anti-SIV activity” value is given as “potent antiviral activity”. For “WQEWERKVDFLEENITALLEEAQIQQEKNMYELQK [SEQ ID NO:64]”, the “anti-SIV activity” value is listed as “potent antiviral activity”. For “QEWERKVDFLEENITALLEEAQIQQEKNMYELQKL [SEQ ID NO:65]”, the “anti-SIV activity” value is listed as “potent antiviral activity”. In the case of “FLEENITALLEEAQIQQEKNMYELQKLNSWDVFGN [SEQ ID NO:73]”, the “anti-SIV activity” value is given as “potent antiviral activity”. In the case of “DFLEENITALLEEAQIQQEKNMYELQKLNSWDVFG [SEQ ID NO:72]”, the “anti-SIV activity” value is listed as “potent antiviral activity”.
